Experimental data: patent US11976019B2 (Acuitas Therapeutics, Inc., priority 2020, dated 2024)
Marks after values point to notes of the source that are not given here.

Legend:
[1] = Determination of pKa of formulated lipids (TNS fluorescence assay in lipid nanoparticles); format: physicochemical; conditions: cationic lipid formulated in LNP (cationic lipid/DSPC/cholesterol/PEG-lipid 50/10/38.5/1.5 mol %); pH of half-maximal TNS fluorescence
Procedure: As described elsewhere, the pKa of formulated cationic lipids is correlated with the effectiveness of LNPs for delivery of nucleic acids (see Jayaraman et al, Angewandte Chemie, International Edition (2012), 51(34), 8529-8533; Semple et al, Nature Biotechnology 28, 172-176 (2010)). The preferred range of pKa is ˜5 to ˜7. The pKa of each cationic lipid was determined in lipid nanoparticles using an assay based on fluorescence of 2-(p-toluidino)-6-napthalene sulfonic acid (TNS). Lipid nanoparticles comprising cationic lipid/DSPC/cholesterol/PEG-lipid (50/10/38.5/1.5 mol %) in PBS at a concentration of 0.4 mM total lipid were prepared using the in-line process as described in Example 1. TNS was prepared as a 100 μM stock solution in distilled water. Vesicles were diluted to 24 μM lipid in 2 mL of buffered solutions containing, 10 mM HEPES, 10 mM IVIES, 10 mM ammonium acetate, 130 mM NaCl, where the pH ranged from 2.5 to 11. An aliquot of the TNS solution was added to give a final concentration of 1 μM and following vortex mixing fluorescence intensity was measured at room temperature in a SLM Aminco Series 2 Luminescence Spectrophotometer using excitation and emission wavelengths of 321 nm and 445 nm. A sigmoidal best fit analysis was applied to the fluorescence data and the pKa was measured as the pH giving rise to half-maximal fluorescence intensity.

[2] = system: luciferase expression in the liver; assay: In vivo luciferase mRNA expression rodent model (liver luciferase after tail vein injection of mRNA-LNP); set-up: species or system mice (C57BL/6 or CD-1); conditions: liver 4 hours after administration, FLuc mRNA LNP; for Liver Luc @ 1.0 mg/kg: 1.0 mg mRNA/kg
Procedure: Lipid nanoparticles were prepared and tested according to the general procedures described in PCT Pub. Nos. WO 2015/199952 and WO 2017/004143, the full disclosures of which are incorporated herein by reference. Briefly, cationic lipid, DSPC, cholesterol and PEG-lipid were solubilized in ethanol at a molar ratio of about 50:10:38.5:1.5 or about 47.5:10:40.8:1.7. Lipid nanoparticles (LNP) were prepared at a total lipid to mRNA weight ratio of approximately 10:1 to 30:1. The mRNA is diluted to 0.2 mg/mL in 10 to 50 mM citrate or acetate buffer, pH 4. Syringe pumps were used to mix the ethanolic lipid solution with the mRNA aqueous solution at a ratio of about 1:5 to 1:3 (vol/vol) with total flow rates above 15 mL/min. The ethanol was then removed and the external buffer replaced with PBS by dialysis. Finally, the lipid nanoparticles were filtered through a 0.2 μm pore sterile filter. Lipid nanoparticle particle size was approximately 55-95 nm diameter, and in some instances approximately 70-90 nm diameter as determined by quasi-elastic light scattering using a Malvern Zetasizer Nano ZS (Malvern, UK).
Studies were performed in 6-8 week old female C57BL/6 mice (Charles River) or 8-10 week old CD-1 (Harlan) mice (Charles River) according to guidelines established by an institutional animal care committee (ACC) and the Canadian Council on Animal Care (CCAC). Varying doses of mRNA-lipid nanoparticle were systemically administered by tail vein injection and animals euthanized at a specific time point (e.g., 4 hours) post-administration. Liver and spleen were collected in pre-weighed tubes, weights determined, immediately snap frozen in liquid nitrogen and stored at −80° C. until processing for analysis.
For liver, approximately 50 mg was dissected for analyses in a 2 mL FastPrep tubes (MP Biomedicals, Solon Ohio). ¼″ ceramic sphere (MP Biomedicals) is added to each tube and 500 μL of Glo Lysis Buffer—GLB (Promega, Madison Wis.) equilibrated to room temperature is added to liver tissue. Liver tissues were homogenized with the FastPrep24 instrument (MP Biomedicals) at 2×6.0 m/s for 15 seconds. Homogenate was incubated at room temperature for 5 minutes prior to a 1:4 dilution in GLB and assessed using SteadyGlo Luciferase assay system (Promega). Specifically, 50 μL of diluted tissue homogenate was reacted with 50 μL of SteadyGlo substrate, shaken for 10 seconds followed by 5 minute incubation and then quantitated using a CentroXS^3 LB 960 luminometer (Berthold Technologies, Germany). The amount of protein assayed was determined by using the BCA protein assay kit (Pierce, Rockford Ill.). Relative luminescence units (RLU) were then normalized to total μg protein assayed. To convert RLU to ng luciferase a standard curve was generated with QuantiLum Recombinant Luciferase (Promega).
The FLuc mRNA (L-6107 or L-7202) from Trilink Biotechnologies will express a luciferase protein, originally isolated from the firefly, Photinus pyralis. FLuc is commonly used in mammalian cell culture to measure both gene expression and cell viability. It emits bioluminescence in the presence of the substrate, luciferin. This capped and poly-adenylated mRNA was fully substituted with respect to uridine and/or cytidine nucleosides.
Representative compounds of the disclosure shown in Table 2 were formulated using the following molar ratio: 50% cationic lipid/10% distearoylphosphatidylcholine (DSPC)/38.5% Cholesterol/1.5% PEG lipid 2-[2-(ω-methoxy(polyethyleneglycol2000)ethoxy]-N,N-ditetradecylacetamide) or 47.5% cationic lipid/10% DSPC/40.7% Cholesterol/1.8% PEG lipid. Relative activity was determined by measuring luciferase expression in the liver 4 hours following administration via tail vein injection as described in Example 1. The activity was compared at a dose of 1.0 or 0.5 mg mRNA/kg and expressed as ng luciferase/g liver measured 4 hours after administration, as described in Example 1. Compound numbers in Table 2 refer to the compound numbers of Table 1.

[3] = system: luciferase expression in the liver; assay: as above; set-up: species or system mice (C57BL/6 or CD-1); conditions: liver 4 hours after administration, FLuc mRNA LNP

Structure (SMILES) | pKa [1] | Liver Luc @ 1.0 mg/kg [2] | Liver Luc determined at 0.3 mg/kg [3] | Liver Luc determined at 0.5 mg/kg [2]
CCCCCCCCOC(=O)CCN(CCCCN(C)C)C(CCCCCCCCC(=O)OCC(CCCC)CCCCCC)CCCCCCCCC(=O)OCC(CCCC)CCCCCC (centres unmarked) [Compound I-1] | 6.11 | 24031 ± 4777 ng luc/g liver |  | 
CCCCCCCCOC(=O)CCN(CCCCCN(C)C)C(CCCCCCCCC(=O)OCC(CCCC)CCCCCC)CCCCCCCCC(=O)OCC(CCCC)CCCCCC (centres unmarked) [Compound I-2, bis(2-butyloctyl) 10-((5-(dimethylamino)pentyl)(3-(octyloxy)-3-oxopropyl)amino)nonadecanedioate] | 6.67 | 682 ± 147 ng luc/g liver | 122 ± 18 ng luc/g liver | 
CCCCCCCCOC(=O)CCN(CCCCN(C)C)C(CCCCCC(=O)OCC(CCCCCC)CCCCCCCC)CCCCCC(=O)OCC(CCCCCC)CCCCCCCC (centres unmarked) [Compound I-4, bis(2-hexyldecyl) 7-((4-(dimethylamino)butyl)(3-(octyloxy)-3-oxopropyl)amino)tridecanedioate] | 6.17 | 46932 ± 17399 ng luc/g liver |  | 
CCCCCCCCC(CCCCCC)C(=O)OCCCCCCN(CCCCN(C)C)C(CCCCCCCCC(=O)OCC(CCCC)CCCCCC)CCCCCCCCC(=O)OCC(CCCC)CCCCCC (centres unmarked) [Compound I-5, bis(2-butyloctyl) 10-((4-(dimethylamino)butyl)(6-((2-hexyldecanoyl)oxy)hexyl)amino)nonadecanedioate] | 6.08 | 11720 ± 2439 ng luc/g liver |  | 
CCCCCCCCCN(CCCCN(C)C)C(CCCCCCCCC(=O)OCC(CCCC)CCCCCC)CCCCCCCCC(=O)OCC(CCCC)CCCCCC (centres unmarked) [Compound I-6] | 6.22 | 11290 ± 6455 ng luc/g liver | 4093 ± 1036 ng luc/g liver | 
CCCCCCC(CCCC)COC(=O)CCCCCCCCC(CCCCCCCCC(=O)OCC(CCCC)CCCCCC)N(CCCN(C)C)C(=O)CCCCC(=O)OC (centres unmarked) [Compound I-14, bis(2-butyloctyl) 10-(N-(3-(dimethylamino)propyl)-6-methoxy-6-oxohexanamido)nonadecanedioate] | 6.8 |  |  | 669 ± 575* *determined at 0.5 mg/kg ng luc/g liver
CCCCCCC(CCCC)COC(=O)CCCCCCCCC(CCCCCCCCC(=O)OCC(CCCC)CCCCCC)N(CCN(C)C)C(=O)CCCCC(=O)OC (centres unmarked) [Compound I-15, bis(2-butyloctyl) 10-(N-(2-(dimethylamino)ethyl)-6-methoxy-6-oxohexanamido)nonadecanedioate] | 5.96 | 21357 ± 15325 ng luc/g liver |  | 
CCCCCCCCC(CCCCCC)COC(=O)CCCCCC(CCCCCC(=O)OCC(CCCCCC)CCCCCCCC)N(CCN(C)C)C(=O)CCCCC(=O)OC (centres unmarked) [Compound I-16, bis(2-hexyldecyl) 7-(N-(2-(dimethylamino)ethyl)-6-methoxy-6-oxohexanamido)tridecanedioate] | 6.25 | 66763 ± 15823 ng luc/g liver |  | 
CCCCCCCCC(CCCCCC)COC(=O)CCCCCC(CCCCCC(=O)OCC(CCCCCC)CCCCCCCC)N(CCCN(C)C)C(=O)CCCCCCC(=O)OC (centres unmarked) [Compound I-17, bis(2-hexyldecyl) 7-(N-(3-(dimethylamino)propyl)-8-methoxy-8-oxooctanamido)tridecanedioate] | 6.78 | 26691 ± 13186 ng luc/g liver |  | 
CCCCCCCCC(CCCCCC)COC(=O)CCCCCC(CCCCCC(=O)OCC(CCCCCC)CCCCCCCC)N(CCN(C)C)C(=O)CCCCCCC(=O)OC (centres unmarked) [Compound I-18, bis(2-hexyldecyl) 7-(N-(2-(dimethylamino)ethyl)-8-methoxy-8-oxooctanamido)tridecanedioate] | 6.02 | 40650 ± 11479 ng luc/g liver |  | 
CCCCCCCCC(CCCCCC)COC(=O)CCCCCC(CCCCCC(=O)OCC(CCCCCC)CCCCCCCC)N(CCCC(=O)N(CCCCCC)CCCCCC)CCN(C)C (centres unmarked) [Compound I-19, bis(2-hexyldecyl) 7-((4-(dihexylamino)-4-oxobutyl)(2-(dimethylamino)ethyl)amino)tridecanedioate] | 5.95 | 32706 ± 4621 ng luc/g liver |  | 
CCCCCCC(CCCC)COC(=O)CCCCCC(CCCCCC(=O)OCC(CCCC)CCCCCC)N(CCCC(=O)N(CCCCCC)CCCCCC)CCCN(C)C (centres unmarked) [Compound I-20, bis(2-butyloctyl) 7-((4-(dihexylamino)-4-oxobutyl)(3-(dimethylamino)propyl)amino)tridecanedioate] | 6.48 | 17095 ± 8181 ng luc/g liver | 4140 ± 1117 ng luc/g liver | 
CCCCCCC(CCCC)COC(=O)CCCCCCCCC(CCCCCCCCC(=O)OCC(CCCC)CCCCCC)N(CCCC(=O)N(CCCCCC)CCCCCC)CCCN(C)C (centres unmarked) [Compound I-21, bis(2-butyloctyl) 10-((4-(dihexylamino)-4-oxobutyl)(3-(dimethylamino)propyl)amino)nonadecanedioate] | 6.4 | 20223 ± 5982 ng luc/g liver | 7723 ± 1714 ng luc/g liver | 
CCCCCCCCC(CCCCCC)C(=O)OCCCCCCN(CCCCN(C)C)C(CCCCCCCCC(=O)OCC(CC)CCCC)CCCCCCCCC(=O)OCC(CC)CCCC (centres unmarked) [Compound I-22, bis(2-ethylhexyl) 10-((4-(dimethylamino)butyl)(6-((2-hexyldecanoyl)oxy)hexyl)amino)nonadecanedioate] | 6.28 | 17654 ± 8167 ng luc/g liver | 5291 ± 1348 ng luc/g liver | 
CCCCCCCCN(CCCCN(C)C)C(CCCCCCCCC(=O)OCC(CCCC)CCCCCC)CCCCCCCCC(=O)OCC(CCCC)CCCCCC (centres unmarked) [Compound I-23, bis(2-butyloctyl) 10-((4-(dimethylamino)butyl)(octyl)amino)nonadecanedioate] | 6.33 |  |  | 553 ± 153* *determined at 0.5 mg/kg ng luc/g liver
